Measured values reported in patent US20120142771A1, “BIPHENYLACETAMIDE DERIVATIVE” (Dainippon Sumitomo Pharma Co., Ltd., priority 2008, published 2012).

How the values were obtained:
[1] = test system: subcutaneously pentetrazol-injected model (scPTZ); assay: Subcutaneously pentetrazol-injected model (scPTZ) test; format: in vivo, mice; conditions: pentetrazol 85 mg/kg s.c. after 1 hour; for responders at 50 mg/kg / responders at 100 mg/kg: Mus musculus, po, 1 h, read-out: scPTZ (positive number/tested number) (converted); for responders at 50 mg/kg: 50 mg/kg oral
Procedure, shortened: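 Male Slc:ddY mice (20-30 g, 3 per group) dosed orally at 50 or 100 mg/kg; pentetrazol 85 mg/kg given subcutaneously 1 h later. Controls received 0.5% tragacanth or 0.5% methylcellulose vehicle.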

[2] = test system: maximum electroshock seizure (MES) model; assay: Maximum electroshock seizure (MES) model test; format: in vivo, mice; conditions: for responders at 100 mg/kg / responders at 50 mg/kg: Mus musculus, po, 1 h, read-out: MES (positive number/tested number) (converted); for responders at 50 mg/kg: 50 mg/kg oral
Procedure, shortened: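 Male Slc: ddY mice (3 per group, 20-30 g) received compound orally at 50 or 100 mg/kg; controls got 0.5% tragacanth or 0.5% methylcellulose. One hour post-dose, corneal stimulation (60 Hz, 25 mA, 0.2 s) induced tonic hind-limb extensor convulsion.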

[3] = Slc: ddY male mice, 3 per group, observed 30 minutes for clonic convulsion
[4] = 100 mg/kg oral, Slc: ddY male mice, 3 per group, observed 30 minutes for clonic convulsion
[5] = 100 mg/kg oral, Slc: ddY male mice, 3 per group, electrical stimulation 1 hour after administration, inhibition of hind limb extension
[6] = Slc: ddY male mice, 3 per group, electrical stimulation 1 hour after administration, inhibition of hind limb extension

Row | Compound | responders at 50 mg/kg [1, 3] | responders at 100 mg/kg [1, 4] | responders at 100 mg/kg [2, 5] | responders at 50 mg/kg [2, 6] | scPTZ (positive number/tested number) [1, 4] | MES (positive number/tested number) [2, 5] | anticonvulsant action in subcutaneously pentetrazol-injected model (scPTZ) test ([1]; mice, oral 50 or 100 mg/kg) | anticonvulsant action in maximum electroshock seizure (MES) model test ([2]; mice, oral 50 or 100 mg/kg, 1 hour after administration)
1 | NC(=O)Cc1ccc(F)cc1-c1ccc(F)cc1 [Example 122] | 0% | 66.7% | 0% | – | – | – | – | –
2 | COC(C(N)=O)c1ccccc1-c1ccccc1 (stereo not shown) [Example 61, 2-(Biphenyl-2-yl)-2-methoxyacetamide] | 0% | 100% | 66.7% | 0% | – | – | – | –
3 | CNC(=O)Cc1ccccc1-c1cc(F)cc(C(F)(F)F)c1 [Example 102] | – | 66.7% | 0% | – | – | – | – | –
4 | NC(=O)Cc1ccccc1-c1cc(C(F)(F)F)ccc1Cl [Example 96] | – | 66.7% | 33.3% | – | – | – | – | –
5 | CS(=O)(=O)c1ccc(-c2ccccc2CC(N)=O)cc1 [Example 92] | – | – | – | – | 1/3 | 0/3 | – | –
6 | NC(=O)Cc1cc(Cl)ccc1-c1ccc(C(F)(F)F)cc1 [Example 142, 2-[4-chloro-4′-(trifluoromethyl)biphenyl-2-yl]acetamide] | 100% | 66.7% | 66.7% | 33.3% | – | – | – | –
7 | NC(=O)C(F)(F)c1ccccc1-c1ccccc1F [Example 169] | – | 33.3% | 100% | – | – | – | – | –
8 | CNC(=O)Cc1ccccc1-c1cccc(C(F)(F)F)c1 [Example 5, N-methyl-2-[3′-(trifluoromethyl)biphenyl-2-yl]acetamide] | 33.3% | 66.7% | 100% | 0% | – | – | – | –
9 | NC(=O)C1(c2ccccc2-c2cccc(F)c2)CC1 [Example 158] | – | 66.7% | 0% | – | – | – | – | –
10 | CCNC(=O)Cc1ccccc1-c1ccccc1C(F)(F)F [Example 8, N-ethyl-2-[2′-(trilluoromethyl)biphenyl-2-yl]acetamide] | 0% | 66.7% | 100% | 0% | – | – | – | –
11 | NC(=O)Cc1cc(F)ccc1-c1cccc(F)c1 [Example 133] | – | 33.3% | 100% | – | – | – | – | –
12 | CN(C)C(=O)Cc1ccccc1-c1ccccc1C(F)(F)F [Example 9] | 0% | 66.7% | 33.3% | – | – | – | – | –
13 | NC(=O)C(O)c1ccccc1-c1cc(F)ccc1F (stereo not shown) [Example 192] | – | 33.3% | 100% | – | – | – | – | –
14 | CNC(=O)Cc1ccc(F)cc1-c1ccccc1 [Example 40] | – | 0% | 100% | 33.3% | – | – | – | –
15 | NC(=O)Cc1c(F)cccc1-c1ccccc1 [Example 118, 2-(3-fluorobiphenyl-2-yl)acetamide] | – | 33.3% | 100% | 100% | – | – | – | –
16 | COC(C(N)=O)c1ccccc1-c1ccc(F)cc1 (stereo not shown) [Example 203, 2-(4′-fluorobiphenyl-2-yl)-2-methoxyacetamide] | 66.7% | 100% | 66.7% | 33.3% | – | – | – | –
17 | NC(=O)Cc1cc(Cl)ccc1-c1ccc(Cl)cc1 [Example 109, 2-(4,4′-dichlorobiphenyl-2-yl)acetamide] | 66.7% | 100% | 100% | 100% | – | – | anticonvulsant action was observed | anticonvulsant action was observed
18 | NC(=O)Cc1ccc(F)cc1-c1cc(Cl)cc(Cl)c1 [Example 150, 2-(3′,5′-dichloro-5-fluorobiphenyl-2-yl)acetamide] | 33.3% | 100% | 100% | 100% | – | – | – | –
19 | CNC(=O)C(F)c1ccccc1-c1ccc(F)cc1 (stereo not shown) [Example 166, 2-fluoro-2-(4′-fluorobiphenyl-2-yl)-N-methylacetamide] | 33.3% | 66.7% | 100% | 66.7% | – | – | – | –
20 | NC(=O)C(F)c1ccccc1-c1ccccc1F (stereo not shown) [Example 164, 2-fluoro-2-(2′-fluorobiphenyl-2-yl)acetamide] | – | 33.3% | 100% | 100% | – | – | – | –
21 | NC(=O)C(O)c1ccc(F)cc1-c1cccc(F)c1 (stereo not shown) [Example 182, 2-(3′,5-difluorobiphenyl-2-yl)-2-hydroxyacetamide] | 0% | 100% | 100% | 33.3% | – | – | – | –

Row | Compound | responders at 50 mg/kg [1, 3] | responders at 100 mg/kg [1, 4] | responders at 100 mg/kg [2, 5] | responders at 50 mg/kg [2, 6] | scPTZ (positive number/tested number) [1, 4] | MES (positive number/tested number) [2, 5] | anticonvulsant action in subcutaneously pentetrazol-injected model (scPTZ) test ([1]; mice, oral 50 or 100 mg/kg) | anticonvulsant action in maximum electroshock seizure (MES) model test ([2]; mice, oral 50 or 100 mg/kg, 1 hour after administration)
22 | NC(=O)Cc1ccc(F)cc1-c1cccc(Cl)c1 [Example 43] | 33.3% | 66.7% | 66.7% | 66.7% | – | – | – | –
23 | NC(=O)Cc1cc(C(F)(F)F)ccc1-c1ccc(Cl)cc1 [Example 137] | – | 66.7% | 0% | – | – | – | – | –
24 | COC(C(N)=O)c1ccccc1-c1cccc(F)c1 (stereo not shown) [Example 199] | – | 33.3% | 100% | 33.3% | – | – | – | –
25 | NC(=O)Cc1cc(F)ccc1-c1ccc(F)cc1 [Example 114, 2-(4,4′-difluorobiphenyl-2-yl)acetamide] | – | 33.3% | 100% | 100% | – | – | – | –
26 | CNC(=O)Cc1cc(C(F)(F)F)ccc1-c1ccccc1 [Example 117] | 33.3% | 66.7% | 0% | – | – | – | – | –
27 | CNC(=O)Cc1ccc(Cl)cc1-c1ccccc1 [Example 124, 2-(5-chlorobiphenyl-2-yl)-N-methylacetamide] | 0% | 100% | 100% | 0% | – | – | – | –
28 | NC(=O)Cc1ccccc1-c1ccc(F)cc1F [Example 154] | – | 33.3% | 100% | 33.3% | – | – | – | –
29 | NC(=O)C(F)(F)c1ccccc1-c1ccccc1 [Example 174, 2-(biphenyl-2-yl)-2,2-difluoroacetamide] | 33.3% | 66.7% | 100% | 100% | – | – | – | –
30 | NC(=O)Cc1ccccc1-c1ccc(C(F)(F)F)cc1C(F)(F)F [Example 74] | – | 33.3% | 66.7% | – | – | – | – | –
31 | CNC(=O)Cc1ccc(Cl)cc1-c1cccc(Cl)c1 [Example 128] | – | 0% | 66.7% | – | – | – | – | –
32 | NC(=O)Cc1ccc(C(F)(F)F)cc1-c1ccccc1 [Example 32] | – | 0% | 100% | 33.3% | – | – | – | –
33 | CNC(=O)C(OC)c1ccccc1-c1ccc(F)cc1 (stereo not shown) [Example 204] | – | 0% | 100% | 0% | – | – | – | –
34 | CNC(=O)Cc1c(F)cccc1-c1ccccc1 [Example 119, 2-(3-fluorobiphenyl-2-yl)-N-methylacetamide] | – | 0% | 100% | 100% | – | – | – | –
35 | CNC(=O)Cc1cc(F)ccc1-c1cccc(F)c1 [Example 134] | – | 0% | 100% | – | – | – | – | –
36 | NC(=O)Cc1ccc([N+](=O)[O-])cc1-c1ccccc1F [Example 113, 2-(2′-fluoro-5-nitrobiphenyl-2-yl)acetamide] | – | 33.3% | 100% | 66.7% | – | – | – | –
37 | NC(=O)Cc1ccccc1-c1ccc(C(F)(F)F)cc1Cl [Example 84, 2-[2′-chloro-4′-(trifluoromethyl)biphenyl-2-yl]acetamide] | 33.3% | 66.7% | 66.7% | 0% | – | – | – | –
38 | CCNC(=O)Cc1ccccc1-c1cccc(F)c1 [Example 27] | – | 33.3% | 100% | 0% | – | – | – | –
39 | NC(=O)Cc1cc(Cl)ccc1-c1ccc(F)cc1 [Example 129] | – | 33.3% | 100% | – | – | – | – | –
40 | NC(=O)C(O)c1ccc(F)cc1-c1cc(Cl)cc(Cl)c1 (stereo not shown) [Example 184, 2-(3′,5′-dichloro-5-fluorobiphenyl-2-yl)-2-hydroxyacetamide] | 33.3% | 66.7% | 100% | 66.7% | – | – | – | –
41 | CC(C)(C)NC(=O)Cc1ccccc1-c1ccccc1F [Example 145] | – | 33.3% | 0% | – | – | – | – | –
42 | COC(C(N)=O)c1ccccc1-c1ccccc1F (stereo not shown) [Example 200, 2-(2′-fluorobiphenyl-2-yl)-2-methoxyacetamide] | 33.3% | 66.7% | 100% | 0% | – | – | – | –
